PMC10935026 (Acta Pharmaceutica Sinica. B, 2023)

Experiments:
GCGR = GCGR (Homo sapiens, UniProt P47871); assay: GCGR activation CRE-Luc reporter assay in vitro; assay type: cell-based
human serum albumin = human serum albumin (human, UniProt P02768 25-609); assay: ITC

Sequence of GCGR (P47871 26-477): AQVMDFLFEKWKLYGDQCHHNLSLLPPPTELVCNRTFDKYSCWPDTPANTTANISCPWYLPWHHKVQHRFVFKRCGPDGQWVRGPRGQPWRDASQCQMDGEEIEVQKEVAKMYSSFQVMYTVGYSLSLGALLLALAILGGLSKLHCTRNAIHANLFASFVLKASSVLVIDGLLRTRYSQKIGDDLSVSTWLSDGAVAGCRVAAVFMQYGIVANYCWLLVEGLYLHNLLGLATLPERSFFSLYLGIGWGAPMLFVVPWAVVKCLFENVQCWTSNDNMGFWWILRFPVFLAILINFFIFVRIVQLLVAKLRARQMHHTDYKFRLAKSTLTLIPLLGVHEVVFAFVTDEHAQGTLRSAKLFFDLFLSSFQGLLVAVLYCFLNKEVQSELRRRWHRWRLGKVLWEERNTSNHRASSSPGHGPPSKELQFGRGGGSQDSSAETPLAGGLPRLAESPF

Molecule | EC50 (GCGR) | Kd (human serum albumin)
CCCCCCCCCCCCCCCC(=O)N[C@@H](CCC(=O)NCCCC[C@H](NC(=O)[C@H](C)NC(=O)[C@H](C)NC(=O)[C@H](CCC(N)=O)NC(=O)CNC(=O)[C@H](CCC(=O)O)NC(=O)[C@H](CC(C)C)NC(=O)[C@H](Cc1ccc(O)cc1)NC(=O)[C@H](CO)NC(=O)[C@H](CO)NC(=O)[C@@H](NC(=O)[C@H](CC(=O)O)NC(=O)[C@H](CO)NC(=O)[C@@H](NC(=O)[C@H](Cc1ccccc1)NC(=O)[C@@H](NC(=O)CNC(=O)[C@H](CCC(=O)O)NC(=O)[C@H](C)NC(=O)[C@@H](N)Cc1cnc[nH]1)[C@@H](C)O)[C@@H](C)O)C(C)C)C(=O)N[C@@H](CCC(=O)O)C(=O)N[C@@H](Cc1ccccc1)C(=O)N[C@H](C(=O)N[C@@H](C)C(=O)N[C@@H](Cc1c[nH]c2ccccc12)C(=O)N[C@@H](CC(C)C)C(=O)N[C@H](C(=O)N[C@@H](CCCNC(=N)N)C(=O)NCC(=O)N[C@@H](CCCNC(=N)N)C(=O)NCC(=O)O)C(C)C)[C@@H](C)CC)C(=O)O [Liraglutide, liraglutide] | > 1 µM | 
GGSGSG [6-amino acid linker GGSGSG] |  | 805 µM
